Data published in ChEMBL document CHEMBL1158229, “Two new lignans, interiotherins A and B, as anti-HIV principles from Kadsura interior” (J Nat Prod, 1996).

What was measured:
[1] = Therapeutic index, ratio of IC50 for mock-infected human H9 cells to EC50 for HIV1 3B; assay type: cell-based; details: for Activity: h9; for selectivity ratio: read-out: TI
H9 = test: Cytotoxicity against mock-infected human H9 cells after 4 days; assay type: cell-based; details: h9, 96 h

Row | Compound | Activity [1] | Activity (H9) | selectivity ratio [1]
1 | C/C=C(/C)C(=O)O[C@H]1c2cc3c(c(OC)c2-c2c(cc4c(c2OC)OCO4)C[C@H](C)[C@@H]1C)OCO3 [ANGELOYLGOMISIN R] | Active | Not Active | –
2 | COc1c2c(cc3c1-c1c(cc4c(c1OC)OCO4)[C@H](OC(=O)c1ccccc1)[C@@H](C)[C@@H](C)C3)OCO2 [INTERIOTHERIN A] | – | – | 13.2
3 | C/C=C(/C)C(=O)O[C@H]1c2cc3c(c(OC)c2-c2c(cc4c(c2OC)OCO4)C[C@H](C)[C@]1(C)O)OCO3 [INTERIOTHERIN B] | Active | Not Active | –
4 | COc1c2c(cc3c1-c1c(cc4c(c1OC)OCO4)[C@H](OC(=O)c1ccccc1)[C@@](C)(O)[C@@H](C)C3)OCO2 [SCHISANTHERIN D] | – | – | 50.6
5 | Cc1cn([C@H]2C[C@H](N=[N+]=[N-])[C@@H](CO)O2)c(=O)[nH]c1=O [ZIDOVUDINE] | – | – | 250000
